# Assay results reported in patent US20050107289A1, “Anti-microbial peptides and compositions” (priority 2001, published 2005).
# Non-standard residues stand in square brackets, D forms with d. Residues, ends and D or L forms follow the SMILES beside them.
# Experiments:
# murine red blood cells = test: Red blood cell hemolysis; assay type: cell-based, mouse
# Method in brief: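 Washed murine erythrocytes at 5% in saline with 10% FBS were exposed to serial peptide dilutions for 30 min at 37° C. Supernatant absorbance at 560 nm was read, with saline as 0% and 1% Triton X-100 as 100% hemolysis.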
# [1] = tested on: vancomycin-resistant Enterococus faecalis (VRE)(ATCC 51575); assay type: cell-based, Enterococcus faecalis; design: key to VRE (in vitro activity): peptide concentration in μg/ml (broth dilution assay); settings: for In Vitro VREF MIC / VRE MIC: ATCC 51575; for VRE (in vitro activity): Table 9, media a: AM-3
# Method in brief: (§1)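 Broth macro- or microdilution MIC per NCCLS M7-A4. Peptides were serially 2-fold diluted in 5% DMSO/9% aqueous sucrose, about 400–2 μg/ml (dilution-series concentrations). Overnight cultures were diluted 4000-fold to an inoculum of about 2.5×10^5 cfu/ml.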
# [2] = tested on: S. aureus (MRSA) ATCC 33591; assay type: cell-based, Staphylococcus aureus; settings: for In Vitro MRSA MIC / S. aureus (MRSA) MIC / MRSA MIC: ATCC 33591; for MRSA (in vitro activity): Table 9, media a: anti-microbial media-3 (AM-3)
# Method in brief: as §1
# Toxicity studies in mice = assay type: in vivo; design: LD50(IP) / LD50(IV): unit not given here; settings: for LD50(IP) / LD50(IV): Table 12, male Balb-C mice; for LD50 at 14 days: male, Balb-C, mouse, in vivo, ip, Table 13
# Protocol: Peptides were tested for toxicity in vivo using procedures similar to those described previously. […] Mice (male Balb-C) in groups of 4-8 were given via IV, IP or SQ single bolucdoses of peptides and monitored for 14 days. Toxicity of sublethal doses was assessed based on the behavior and appearance of the mice after peptide administration compared to control mice receiving only vehicle. Signs of acute toxicity included lack of activity, red feet and tail, faster breathing. Death was defined as the end point for lethal doses of peptides.
# Toxicology Studies: Initial toxicology studies in mice were conducted to evaluate various routes of drug administration, maximum tolerable dose, and blood and tissue toxicity. Two mice in each dose study were injected with a bolus intravenous (IV), intraperitoneal (IP), or subcutaneous (SQ) doses of peptide SEQ ID NO:8, 18, and 26. For each study, two control animals received vehicle only and no peptide. […] Signs of acute toxicity included any one of the following: lack of activity, red feet and tail, or faster breathing. […] A regimen of […] of peptide SEQ ID NO:18 for three consecutive days was administered to two mice IP and two mice SQ.
# E. coli JM109(DE3) = assay type: cell-based, Escherichia coli; settings: JM109
# Method in brief: as §1
SMILES,In Vitro RBC MIC (murine red blood cells) [µg/mL],In Vitro VREF MIC [1] [µg/mL],In Vitro MRSA MIC [2] [µg/mL],S. aureus (MRSA) MIC [2] [µg/mL],LD50(IP) (Toxicity studies in mice),LD50(IV) (Toxicity studies in mice),LD50 at 14 days (Toxicity studies in mice) [mg/kg],E. coli MIC (E. coli JM109(DE3)) [µg/mL],RBC Hemolysis (HD50) (murine red blood cells),VRE MIC [1] [µg/mL],VRE (in vitro activity) [1],MRSA MIC [2] [µg/mL],MRSA (in vitro activity) [2],further results
"CC(C)C[C@H]1NC(=O)[C@H](Cc2c[nH]c3ccccc23)NC(=O)[C@@H](CCCNC(=N)N)NC(=O)[C@H](CCC(N)=O)NC(=O)[C@@H](CCCCN)NC(=O)[C@H](Cc2c[nH]c3ccccc23)NC(=O)[C@@H](CC(C)C)NC(=O)[C@H](Cc2c[nH]c3ccccc23)NC1=O [SEQ ID NO:8, cyclo-(D-Lys-Gln-D-Arg-Trp-D-Leu-Trp-D-Leu-Trp)] (cyclo([dK]Q[dR]W[dL]W[dL]W))",40,12,12,6,55,>12,55,80,,,,,,"HD50 (murine red blood cells): 10 µg/mL; reduction in hemolytic activity (murine red blood cells): five-fold; Hemolysis HD50 (murine red blood cells; red cells of murine): 45 µg/mL; signs of toxicity (Toxicity studies in mice; mice, IP, maximum tested dose 12 mg/kg): no signs of toxicity were observed; signs of toxicity (Toxicity studies in mice; mice, bolus IV 12 mg/kg): signs of temporary (<10 min in duration) discomfort"
"CC(C)C[C@H]1NC(=O)[C@H](Cc2c[nH]c3ccccc23)NC(=O)[C@@H](CCCCN)NC(=O)[C@H](CO)NC(=O)[C@@H](CCCCN)NC(=O)[C@H](Cc2c[nH]c3ccccc23)NC(=O)[C@@H](CC(C)C)NC(=O)[C@H](Cc2c[nH]c3ccccc23)NC1=O [SEQ ID NO:12, D-Lys-Ser-D-Lys-Trp-D-Leu-Trp-D-Leu-Trp] (cyclo([dK]S[dK]W[dL]W[dL]W))",100,15,5,5,>400,70,> 400,40,100,15,15,5,5,
"CC(C)C[C@H]1NC(=O)[C@H](Cc2c[nH]c3ccccc23)NC(=O)[C@@H](CCCCN)NC(=O)[C@H](CCCNC(=N)N)NC(=O)[C@@H](CCCNC(=N)N)NC(=O)[C@H](Cc2c[nH]c3ccccc23)NC(=O)[C@@H](CC(C)C)NC(=O)[C@H](Cc2c[nH]c3ccccc23)NC1=O [SEQ ID NO:18, cyclo-(D-Arg-Arg-D-Lys-Trp-D-Leu-Trp-D-Leu-Trp)] (cyclo([dR]R[dK]W[dL]W[dL]W))",50,5,6,6,60,16,60,15,50,5,5,5,5,"physical, social and feeding activities (Toxicity studies in mice; mice, 17.5 mg per day, three consecutive days, IP or SQ, over four days): no apparent changes in the physical, social, and feeding activities; sites of IP and SQ injections (Toxicity studies in mice; mice, 17.5 mg per day, three days): moderate subacute inflammation; hematology, necropsy and microscopic examination (Toxicity studies in mice; mice, 17.5 mg per day, three days, fourth day): normal blood and morphological profiles except for the sites of IP and SQ injections; signs of toxicity (Toxicity studies in mice; mice, up to 17.5 mg/kg IP and SQ): without any apparent signs of toxicity"
